Test results from patent publication US9055744B2 (priority 2008, dated 2015).

Assays:
[1] = test system: Phytophthora infestans; format: cell-based; details: different concentrations
[2] = test system: Pseudomonas syringae p.v. syringae; test: Effect of the antipathogenic protein on bacterial pathogens (growth inhibition); format: cell-based; details: concentration where the bacteria growth is inhibit in a 50%; ± standard deviation
[3] = test system: Erwinia carotovorum p.v. carotovora; test: as above; format: cell-based; details: concentration where the bacteria growth is inhibit in a 50%; ± standard deviation
[4] = test system: Erwinia chrysanthemi p.v. zea; test: as above; format: cell-based; details: concentration where the bacteria growth is inhibit in a 50%; ± standard deviation
[5] = test system: Xanthomonas campestris p.v. phaseoli; test: as above; format: cell-based; details: concentration where the bacteria growth is inhibit in a 50%; ± standard deviation
[6] = test system: Pseudomonas avenae; test: as above; format: cell-based; details: concentration where the bacteria growth is inhibit in a 50%; ± standard deviation
[7] = test system: Cándida albicans; details: cited from earlier work
[8] = test system: several plant pathogens; format: cell-based

For “SEQ ID No. 9: fragment of the antipathogenic protein NmDef-02 obtained by chemical synthesis (QAGWSHGDCRAQFKCKCIFEC; Nicotiana megalosiphon)”, the “effect of fragments on the pathogen P. infestans” value ([1]; FIG. 6) was “control or inhibition of pathogen”.

In the case of “NmDef-02: new anti-pathogenic small cysteine rich protein isolated from Nicotiana megalosiphon; also chemically synthesized without the signal peptide (RECKAQGRHTTCFRDANCVQVCEKQAGWSHGDCRAQFKCKCIFEC; Nicotiana megalosiphon)”, the IC50 [2] is reported as 26 ± 6 µM, the IC50 [3] is reported as 86 ± 8 µM and the IC50 [4] is reported as 11 ± 8 µM. The IC50 [5] was 40 ± 3 µM, the IC50 [6] was 17 ± 5 µM and the “inhibition of the growth of P. infestans” value ([1]; FIG. 4B) was “high levels of inhibition growth”.

For “Rs-AFP2: plant anti-pathogenic protein from the literature (QKLCQRPSGTWSGVCGNNNACKNQCIRLEKARHGSCNYVFPAHKCICYFPC; UniProt P30230 30-80, looked up)”, the “activity against Cándida albicans” value [7] is given as “active in micromolar concentrations”.

B1: NmDef-Plus: antipathogenic protein fused to the signal peptide of the Saccharomyces cerevisiae alpha factor, expressed in Pichia pastoris (protein)
chain: APVNTTTEDETAQIPAEAVIGYSDLEGDFDVAVLPFSNSTNNGLLFINTTIASIAAKEEGVSRECKAQGRHTTCFRDANCVQVCEKQAGWSHGDCRAQFKCKCIFEC
For B1, the “inhibition of the growth of plant pathogens” value [8] was “high levels of inhibition growth”.
